Results taken from BigSolDB 2.1.

Cc1c(N)cccc1C(=O)O
solubility (mole fraction)
Conditions | 288.15 K | 293.15 K | 298.15 K | 303.15 K | 308.15 K | 313.15 K | 318.15 K | 323.15 K | 328.15 K
in acetonitrile | 0.0004 | 0.000499 | 0.000728 | 0.000986 | 0.00126 | 0.0017 | 0.00202 | 0.00251 | 0.00307
in ethanol | 0.00373 | 0.00422 | 0.00496 | 0.00628 | 0.00749 | 0.00891 | 0.0105 | 0.0124 | 0.0151
in ethyl acetate | 0.000961 | 0.00107 | 0.00135 | 0.00173 | 0.0022 | 0.00283 | 0.0035 | 0.00436 | 0.00524
in isobutanol | 0.00112 | 0.00132 | 0.00191 | 0.00254 | 0.00322 | 0.00427 | 0.00534 | 0.0069 | 0.00839
in isopropanol | 0.00196 | 0.00228 | 0.00298 | 0.00386 | 0.00494 | 0.00629 | 0.0079 | 0.00991 | 0.0123
in methanol | 0.00532 | 0.0059 | 0.00682 | 0.00844 | 0.00979 | 0.0115 | 0.0136 | 0.0159 | 0.0178
in methyl acetate | 0.000975 | 0.00127 | 0.00179 | 0.0024 | 0.00292 | 0.00347 | 0.00428 | 0.00514 | 0.00571
in n-butanol | 0.00236 | 0.00269 | 0.00333 | 0.00442 | 0.00535 | 0.00659 | 0.0079 | 0.00962 | 0.0115
in n-propanol | 0.00245 | 0.00277 | 0.00341 | 0.00444 | 0.00542 | 0.00672 | 0.00824 | 0.0101 | 0.0123
in n-propyl acetate | 0.000796 | 0.000942 | 0.00109 | 0.00142 | 0.00176 | 0.00225 | 0.00286 | 0.00368 | 0.0047
in sec-butanol | 0.00178 | 0.00209 | 0.00285 | 0.00388 | 0.00513 | 0.00675 | 0.00858 | 0.0111 | 0.0138
in water | 0.000581 | 0.000588 | 0.00062 | 0.000669 | 0.000718 | 0.00079 | 0.000887 | 0.00098 | 0.00105
